Data taken from US9497964B2, “Synergistic activity of peracetic acid and at least one SAR inducer for the control of pathogens in and onto growing plants” (AGRI-NEO INC., priority 2010, dated 2016).

Test system: Fusarium patch disease
Test: Fusarium patch on turfgrass in British Columbia Canada
Type: in vivo
Conditions: for % disease control vs untreated / mean # disease spots/plot: 0.6 kg/ha
Protocol: Creeping bentgrass was naturally inoculated with Fusarium patch disease. Four plots were assessed, and each plot was four square meters of mature turf. Four replicates were used per treatment. […] Azoxystrobin is a broad-spectrum fungicide with a single-site mode of action: it binds very tightly to the Qo site of Complex III in the mitochondrial electron transport chain of fungal pathogens. Thus the disease pest is prevented from generating ATP, so it dies for lack of metabolic energy. Azoxystrobin is itself extracted from certain Eastern European mushrooms reputed for their resistance to disease induced by other fungi. Azoxystrobin, marketed under the brand name of Heritage, is one of the commercial standards used in the management of Fusarium Patch disease on turf grass. It was against this reference that the efficacy of […] in controlling this pathogen was compared and contrasted.
Spray volume was one thousand liters per hectare. Three product applications were made. The interval between applications was 14 days.
Observations (disease symptoms, leaf damage due to product, and grass vigour) were made at the following intervals: • Immediately prior to each application. • Nine days after the last (third) application. • Sixty days after the last (third) application. • Ninety days after the last (third) application.

## CO/C=C(/C(=O)OC)c1ccccc1Oc1cc(Oc2ccccc2C#N)ncn1 [Azoxystrobin]
Spring
  % disease control vs untreated: 17%
  mean # disease spots/plot: 10
Winter
  % disease control vs untreated: 31%
  mean # disease spots/plot: 9
Azoxystrobin
  reduction of disease incidence relative to the water-sprayed inoculated control: 15-30%
